From PMC8131363 (Scientific Reports, 2021)
pEC50: −log10 of the molar value.

Key:
cCaSR = molecular target: T1, cCaSR (Felis catus, UniProt C7FF08); assay: cCaSR transiently expressed in HEK293/natClytin, agonist luminescence assay; format: cell-based; details: transiently expressed cCaSR; > 3 mM = maximal response not reached; read-out: cCaSR EC50
T1 sequence (C7FF08 1-1081): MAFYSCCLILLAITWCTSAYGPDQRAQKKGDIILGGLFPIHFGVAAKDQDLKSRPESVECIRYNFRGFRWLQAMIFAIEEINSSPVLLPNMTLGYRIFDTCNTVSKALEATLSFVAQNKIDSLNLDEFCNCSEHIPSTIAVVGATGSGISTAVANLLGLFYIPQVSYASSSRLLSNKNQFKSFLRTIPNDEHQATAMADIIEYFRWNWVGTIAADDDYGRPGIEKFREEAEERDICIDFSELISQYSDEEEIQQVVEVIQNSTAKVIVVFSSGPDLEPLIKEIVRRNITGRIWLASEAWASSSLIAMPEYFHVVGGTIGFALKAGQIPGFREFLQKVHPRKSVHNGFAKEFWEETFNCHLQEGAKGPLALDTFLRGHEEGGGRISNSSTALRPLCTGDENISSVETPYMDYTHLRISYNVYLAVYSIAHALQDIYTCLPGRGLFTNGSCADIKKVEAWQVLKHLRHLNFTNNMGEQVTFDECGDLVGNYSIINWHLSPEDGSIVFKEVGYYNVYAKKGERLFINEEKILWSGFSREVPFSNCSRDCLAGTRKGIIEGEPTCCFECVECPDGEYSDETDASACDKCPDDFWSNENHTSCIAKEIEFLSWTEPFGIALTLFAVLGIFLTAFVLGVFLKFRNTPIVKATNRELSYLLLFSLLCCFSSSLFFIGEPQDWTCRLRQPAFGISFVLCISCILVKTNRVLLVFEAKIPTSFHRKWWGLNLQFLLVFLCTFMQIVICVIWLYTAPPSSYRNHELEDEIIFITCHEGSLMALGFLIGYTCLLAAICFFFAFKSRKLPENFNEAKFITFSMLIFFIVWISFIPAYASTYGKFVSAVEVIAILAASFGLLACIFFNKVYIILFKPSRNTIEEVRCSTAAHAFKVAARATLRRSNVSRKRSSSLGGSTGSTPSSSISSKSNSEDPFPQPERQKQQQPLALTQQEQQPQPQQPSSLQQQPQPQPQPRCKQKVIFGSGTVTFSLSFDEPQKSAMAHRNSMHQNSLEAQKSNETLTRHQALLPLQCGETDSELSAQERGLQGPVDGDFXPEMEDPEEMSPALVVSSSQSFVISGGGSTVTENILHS
Experimental: The coding sequence of the Felis catus[52] and Homo sapiens[53] CaSR gene was synthesised by GeneArt (Thermo Fisher Scientific). The cat coding sequence was excised from the GeneArt construct and inserted in pcDNA3.1 for constitutive and transient expression or pcDNA5/ TO for inducible expression. For the human sequence the pcDNA6 vector as delivered by GeneArt was used without further sub-cloning.
All transient transfections were performed with Lipofectamine 2000 (Invitrogen) according to the manufacturer’s protocol.

domestic short hair cats = assay: two-bottle choice test, cat water panel; format: in vivo, Felis catus; details: for intake of compound solution compared to water: n = 24, 18 h, CaCl2 at 8 mM; for preference for umami amino acid mix with compound vs amino acid mix alone: n = 24, mix 15 mM L-His, 15 mM L-Trp, 15 mM L-Phe
Experimental: Healthy neutered adult domestic short hair cats (Felis catus) formed the panel for all the choice tests described here (n = 24). […] All the cats taking part in the panel were individually fed dry adult cat food twice per day to their individual Maintenance Energy Requirements (MER). On test days, the cats were housed during 18 h overnight in purpose-built, behaviourally-enriched lodges. During the 18 h exposure, the cats only had access to the water solutions in the two-bottle testing apparatus, however they had free access to drinking water for the rest of the day when they were housed in a social group within an environmentally enriched room. All accommodation complied with the Code of Practice for Animal (Scientific Procedures) Act 1986. All solutions were made with deionised water (Purite, UK). All taste-active substances were food-grade or of the highest available purity. In some cases, salts were purchased instead of the pure compound due to solubility, stability or availability reasons. The in vivo testing was a two-bottle choice test and the methodology was adapted from[23]. All animal studies were in alignment with the Mars Animal Research Policy (Mars.com). These studies follow the 3Rs approach to experimentation with animals in scientific research[59] and were approved by the Waltham Animal Welfare and Ethical Review Board, and all the methods were carried-out in accordance with local guidelines and regulations, including the ARRIVE guidelines. […] The drinkers contained the test solution or the control solution, and the position of the drinkers presented to the cats was changed every day to control for any side bias, and each solution was offered twice to each cat. The cats were also offered at the same time as the water solutions, 50% of their daily food allowance. After 30 min. the food was removed and the cats were left in their individual lodges overnight, with access to the drinkers for 18 h. The next day the drinkers were weighed, and the remaining quantities were recorded as refused amounts. Total intakes were calculated using the difference of the offered and refused amounts. A correction for evaporation and any solution spillage was also performed on each data point. Using a bespoke statistical analysis toolkit, based on R software (R Foundation, Vienna, Austria), a mixed model analysis was performed on the difference in intake (g) between water solutions containing the different taste compound, including cat (random) as a factor and weighting by grouped cat specific variability. This was used to test the mean intake difference versus 0, i.e. no difference, at a 5% level. The mean difference in intake was reported with a 95% confidence interval. All individual tests were then combined into a single model and the difference between the tastant pairs (i.e. both conditions containing the kokumi tastant in water vs. in the umami amino acid mix) were directly compared to measure the impact of the compound on the intake of either water or the umami mix. Any data errors (e.g. following manual error such as solution spillage, overflow) were removed from the final data set for analysis.

Row | pEC50 (cCaSR) | Compound | intake of compound solution compared to water (domestic short hair cats) | preference for umami amino acid mix with compound vs amino acid mix alone (domestic short hair cats)
1 | 2.07 | [Cl-].[Cl-].[Mg+2] [Mg^2+, MgCl2] | significantly lower acceptance | significantly rejected
2 | 2.94 | [Ca+2].[Cl-].[Cl-] [Ca^2+, CaCl2] | no significant difference | significant preference
3 | < 2.52 | N[C@@H](CCC(=O)N[C@@H](CS)C(=O)NCC(=O)O)C(=O)O [Glutathione] | significantly lower acceptance | no statistically significant difference
